Measurements as given in patent US12404304B1, “Telomerase reverse transcriptase (TERT) expression enhancing compounds and methods for using the same” (Sierra Sciences, LLC, priority 2007, dated 2025).

Tests used:
[1] = test system: human TERT expression (hTERT mRNA); assay: Quantitative real-time RT-PCR of hTERT mRNA expression (Ct, transcripts) in compound-treated cells; format: cell-based
Summary of the method: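 Read-out is cycle threshold, the cycle at which probe fluorescence released by Taq 5′-nuclease activity crosses a set level; Ct falls as hTERT mRNA rises. cDNA of treated and untreated cells was compared, with starting transcripts quantified against a known-cDNA standard curve.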

viable cells in culture = assay: Cell viability assay (CellTiter-Glo Luminescent Cell Viability Assay, ATP quantitation, percent of vehicle control)

Cc1nn(-c2cc(N3CCN(S(=O)(=O)c4ccc(Cl)cc4)CC3)ccc2[N+](=O)[O-])c(=O)c2ccccc12 [compound 1407] was tested, and the “Average Number of hTERT Transcripts” value [1] was 3.38 and the “Average Cell Viability after 24 Hours (% DMSO)” value (viable cells in culture) was 109.75 % DMSO.

With O=C(NC(c1ccccc1)c1ccc(Br)cc1)c1cccc(F)c1 (stereo not drawn) [compound 1408] the “Average Number of hTERT Transcripts” value [1] was 3.47 and the “Average Cell Viability after 24 Hours (% DMSO)” value (viable cells in culture) was 89.70 % DMSO.

With COc1ccc(-c2nnc(SCC(=O)Nc3ccc(S(N)(=O)=O)cc3)o2)cc1 [compound 1409] the “Average Number of hTERT Transcripts” value [1] was 18.63 and the “Average Cell Viability after 24 Hours (% DMSO)” value (viable cells in culture) was 86.13 % DMSO.

For O=C(Nc1nc(COc2ccccc2)cs1)c1sc2cc(Cl)ccc2c1Cl [compound 1410], the “Average Number of hTERT Transcripts” value [1] was 8.90 and the “Average Cell Viability after 24 Hours (% DMSO)” value (viable cells in culture) was 75.12 % DMSO.

CC(C)(C)c1ccc(C(=O)NC(=S)Nc2c(Cl)cc(Cl)cc2Cl)cc1 [compound 1411] was tested, and the “Average Number of hTERT Transcripts” value [1] was 10.04 and the “Average Cell Viability after 24 Hours (% DMSO)” value (viable cells in culture) was 92.66 % DMSO.

CCOC(=O)c1ccc(NC(=O)CSc2nnc(-c3ccc(OC)cc3)o2)cc1 [compound 1412] was tested, and the “Average Number of hTERT Transcripts” value [1] was 6.19 and the “Average Cell Viability after 24 Hours (% DMSO)” value (viable cells in culture) was 92.98 % DMSO.

In the case of CCOC(=O)COc1ccc(S(=O)(=O)Nc2ccc(C(=O)OC)cc2)cc1 [compound 1413], the “Average Number of hTERT Transcripts” value [1] is reported as 25.20 and the “Average Cell Viability after 24 Hours (% DMSO)” value (viable cells in culture) is reported as 80.11 % DMSO.

With COC(=O)COc1ccc(NC(=O)c2ccc(F)cc2)cc1 [compound 1414] the “Average Number of hTERT Transcripts” value [1] was 203.88 and the “Average Cell Viability after 24 Hours (% DMSO)” value (viable cells in culture) was 69.42 % DMSO.

COC(=O)COc1ccc(S(=O)(=O)N(C)Cc2ccccc2)cc1 [compound 1415] was tested, and the “Average Number of hTERT Transcripts” value [1] was 30.51 and the “Average Cell Viability after 24 Hours (% DMSO)” value (viable cells in culture) was 79.96 % DMSO.

In the case of COc1ccc(OC)c(N(C(=O)Cc2ccccc2)c2nc(-c3ccc(C)cc3)c(C)s2)c1 [compound 1416], the “Average Number of hTERT Transcripts” value [1] is reported as 15.42 and the “Average Cell Viability after 24 Hours (% DMSO)” value (viable cells in culture) is reported as 95.26 % DMSO.

For COc1ccc(C(=O)NC(=S)Nc2ccc(Nc3ccccc3)cc2)cc1Br [compound 1417], the “Average Number of hTERT Transcripts” value [1] was 5.13 and the “Average Cell Viability after 24 Hours (% DMSO)” value (viable cells in culture) was 92.17 % DMSO.

O=C(NC(=S)Nc1cc([N+](=O)[O-])ccc1O)c1ccc(Br)o1 [compound 1418] was tested, and the “Average Number of hTERT Transcripts” value [1] was 42.80 and the “Average Cell Viability after 24 Hours (% DMSO)” value (viable cells in culture) was 94.19 % DMSO.

For CCC(=O)NC(=S)Nc1ccccc1C#N [compound 1419], the “Average Number of hTERT Transcripts” value [1] was 5.40 and the “Average Cell Viability after 24 Hours (% DMSO)” value (viable cells in culture) was 87.51 % DMSO.

Cc1cc(C)c(S(=O)(=O)Nc2ccccc2C(=O)NCCc2ccccc2)c(C)c1 [compound 1420] was tested, and the “Average Number of hTERT Transcripts” value [1] was 57.36 and the “Average Cell Viability after 24 Hours (% DMSO)” value (viable cells in culture) was 73.35 % DMSO.

COc1ccc(S(=O)(=O)N(CC(=O)NC2CC3CCC2C3)c2ccccc2)cc1OC (stereo not drawn) [compound 1421] was tested, and the “Average Number of hTERT Transcripts” value [1] was 6.96 and the “Average Cell Viability after 24 Hours (% DMSO)” value (viable cells in culture) was 104.42 % DMSO.

With CC1CCN(C(=S)NC(=O)c2sc3ccccc3c2Cl)CC1 [compound 1422] the “Average Number of hTERT Transcripts” value [1] was 19.95 and the “Average Cell Viability after 24 Hours (% DMSO)” value (viable cells in culture) was 102.65 % DMSO.

With Cc1ccc(S(=O)(=O)Nc2ccccc2C(=O)NCCc2ccccc2)cc1[N+](=O)[O-] [compound 1424] the “Average Number of hTERT Transcripts” value [1] was 37.45 and the “Average Cell Viability after 24 Hours (% DMSO)” value (viable cells in culture) was 94.37 % DMSO.

In the case of Cc1ccc2nc(-c3ccc(NC(=S)NC(=O)CCc4ccccc4)cc3)sc2c1 [compound 1425], the “Average Number of hTERT Transcripts” value [1] is reported as 17.07 and the “Average Cell Viability after 24 Hours (% DMSO)” value (viable cells in culture) is reported as 79.15 % DMSO.

With Cc1cccc(NC(=O)CSc2nnc(CNC(=O)c3ccc(Br)cc3)n2C)c1 [compound 1427] the “Average Number of hTERT Transcripts” value [1] was 5.16 and the “Average Cell Viability after 24 Hours (% DMSO)” value (viable cells in culture) was 107.40 % DMSO.

With O=C(NCCc1ccccc1)c1ccc(NC(=O)C2(c3ccccc3)CCCC2)cc1 [compound 1428] the “Average Number of hTERT Transcripts” value [1] was 7.81 and the “Average Cell Viability after 24 Hours (% DMSO)” value (viable cells in culture) was 92.20 % DMSO.

In the case of O=C(Cn1c(=O)oc2ccccc21)Nc1cc(Cl)ccc1Cl [compound 1429], the “Average Number of hTERT Transcripts” value [1] is reported as 13.70 and the “Average Cell Viability after 24 Hours (% DMSO)” value (viable cells in culture) is reported as 83.97 % DMSO.

In the case of O=C(NCC1COc2ccccc2O1)c1ccc(NC(=O)C2COc3ccccc3O2)cc1 (stereo not drawn) [compound 1430], the “Average Number of hTERT Transcripts” value [1] is reported as 23.55 and the “Average Cell Viability after 24 Hours (% DMSO)” value (viable cells in culture) is reported as 88.00 % DMSO.

In the case of CCC(C)NS(=O)(=O)c1ccc(NC(=O)CN2C(=O)c3ccccc3C2=O)cc1 (stereo not drawn) [compound 1431], the “Average Number of hTERT Transcripts” value [1] is reported as 9.12 and the “Average Cell Viability after 24 Hours (% DMSO)” value (viable cells in culture) is reported as 100.20 % DMSO.

In the case of CCC(=O)Oc1cccc2ccc(/C=C/c3ccccc3Cl)nc12 [compound 1432], the “Average Number of hTERT Transcripts” value [1] is reported as 19.46 and the “Average Cell Viability after 24 Hours (% DMSO)” value (viable cells in culture) is reported as 86.95 % DMSO.

Cc1ccc(NS(=O)(=O)c2ccc(NC(=O)C(c3ccccc3)c3ccccc3)cc2)cc1C [compound 1433] was tested, and the “Average Number of hTERT Transcripts” value [1] was 45.43 and the “Average Cell Viability after 24 Hours (% DMSO)” value (viable cells in culture) was 75.77 % DMSO.

With CC(=O)C1=C(C)NC(SCC(=O)Nc2sc3c(c2C#N)CCCC3)=C(C#N)C1c1ccc(Cl)cc1 (stereo not drawn) [compound 1434] the “Average Number of hTERT Transcripts” value [1] was 25.17 and the “Average Cell Viability after 24 Hours (% DMSO)” value (viable cells in culture) was 72.00 % DMSO.

COC(=O)CSc1nnc(-c2sc3cc(Cl)ccc3c2Cl)n1C [compound 1435] was tested, and the “Average Number of hTERT Transcripts” value [1] was 48.10 and the “Average Cell Viability after 24 Hours (% DMSO)” value (viable cells in culture) was 60.23 % DMSO.

In the case of O=C(Nc1ccccc1OC(F)F)C(c1ccccc1)c1ccccc1 [compound 1436], the “Average Number of hTERT Transcripts” value [1] is reported as 8.14 and the “Average Cell Viability after 24 Hours (% DMSO)” value (viable cells in culture) is reported as 82.48 % DMSO.

In the case of COC(=O)COc1ccc(S(=O)(=O)N2CCCC2)cc1Cl [compound 1437], the “Average Number of hTERT Transcripts” value [1] is reported as 22.13 and the “Average Cell Viability after 24 Hours (% DMSO)” value (viable cells in culture) is reported as 79.26 % DMSO.

For O=C(CC(NC1CCCCC1)C(=O)O)Nc1cccc([N+](=O)[O-])c1 (stereo not drawn) [compound 1438], the “Average Number of hTERT Transcripts” value [1] was 8.29 and the “Average Cell Viability after 24 Hours (% DMSO)” value (viable cells in culture) was 97.89 % DMSO.

For CC(=O)c1ccc(NC(=S)Nc2ccc(Br)c(Cl)c2)cc1 [compound 1439], the “Average Number of hTERT Transcripts” value [1] was 11.63 and the “Average Cell Viability after 24 Hours (% DMSO)” value (viable cells in culture) was 51.61 % DMSO.

COC(=O)c1sc(NC(=S)NCc2cccnc2)c(C(=O)OC)c1C [compound 1440] was tested, and the “Average Number of hTERT Transcripts” value [1] was 13.85 and the “Average Cell Viability after 24 Hours (% DMSO)” value (viable cells in culture) was 99.11 % DMSO.

For CCOC(=O)N1CCN(C(=O)CCc2ccc(S(=O)(=O)NCCc3ccccc3)cc2)CC1 [compound 1441], the “Average Number of hTERT Transcripts” value [1] was 5.06 and the “Average Cell Viability after 24 Hours (% DMSO)” value (viable cells in culture) was 101.03 % DMSO.

CCOc1ccc(NC(=O)Nc2cccc(C(C)=O)c2)c([N+](=O)[O-])c1 [compound 1442] was tested, and the “Average Number of hTERT Transcripts” value [1] was 7.65 and the “Average Cell Viability after 24 Hours (% DMSO)” value (viable cells in culture) was 84.87 % DMSO.

For Cc1ccc2nc(-c3ccc(NC(=S)Nc4cccc([N+](=O)[O-])c4)cc3)sc2c1 [compound 1443], the “Average Number of hTERT Transcripts” value [1] was 7.82 and the “Average Cell Viability after 24 Hours (% DMSO)” value (viable cells in culture) was 77.16 % DMSO.

With CC(=O)Oc1ccc2c(=O)c(Oc3ccc4ccccc4c3)c(C(F)(F)F)oc2c1 [compound 1444] the “Average Number of hTERT Transcripts” value [1] was 16.54 and the “Average Cell Viability after 24 Hours (% DMSO)” value (viable cells in culture) was 64.02 % DMSO.

For CCOC(=O)C(=O)Nc1ccc(S(=O)(=O)N2CC(C)CC(C)C2)cc1 (stereo not drawn) [compound 1445], the “Average Number of hTERT Transcripts” value [1] was 6.33 and the “Average Cell Viability after 24 Hours (% DMSO)” value (viable cells in culture) was 87.20 % DMSO.

In the case of CC(C)(C)C(=O)Nc1nc2c(Cl)c(Cl)ccc2s1 [compound 1446], the “Average Number of hTERT Transcripts” value [1] is reported as 46.62 and the “Average Cell Viability after 24 Hours (% DMSO)” value (viable cells in culture) is reported as 65.61 % DMSO.

For O=C(Cn1cnc2ccccc21)NCCCN1CCOCC1 [compound 1447], the “Average Number of hTERT Transcripts” value [1] was 5.30 and the “Average Cell Viability after 24 Hours (% DMSO)” value (viable cells in culture) was 96.56 % DMSO.
